# From patent publication US5130327A, “Indole derivatives” (Consejo Superior de Investigaciones Cientificas, priority 1989, dated 1992)
# System: reuptake of noradrenaline
# Test: Reuptake of noradrenaline in vitro, crude synaptosomal preparation
# Format: biochemical, rat
# Experimental: Influence on the reuptake of monoamines "in vitro" was also studied. The effect of the compounds on the reuptake of 5-HT noradrenaline and dopamine was studied using Wistar male rats (350±2.5 g). They were kept under controlled light and temperature conditions and fed "ad libitum" until killed. The animals were killed by decapitation and brains were frozen and stored at -20° C. prior to analysis. Brains were dissected on an ice-filled petri dish. The cortices for 5-HT and noradrenaline assay and striatum (including caudate nucleus, putamen and globus pallidus) for dopamine assay were immediately weighed and homogenized. The standard incubation medium contained: 1.7 μM ^14 C-5-HT); 0.5μM ^3 H-noradrenaline or 1 μM ^3 H-dopamine with 0.1 ml of the crude synaptosomal preparation. All drugs used in the study were dissolved in the incubation medium in a concentration range 10^-4 to 10^-8 M and were preincubated with the crude synaptosomal preparation obtained from the treated brains, for 5 min. at 37° C. or 0° C. before the addition of the labelled substrate.
compound,measurement,value
"C#CCN(C)Cc1cc2cc(OC)ccc2n1C [(l), N-methyl-N-propargyl-2-(1-methyl-5-methoxy-indolyl)methylamine]",Effect on the reuptake of noradrenaline,no effect
